From patent US8461328B2, “Tricyclic heterocyclic compounds, compositions and methods of use thereof” (Genentech, Inc., priority 2010, dated 2013)
Counter-ions that a name gives are not always drawn.

Key:
Format in all cases: biochemical
JAK1 = biological target: T1, JAK1 (Homo sapiens, UniProt P23458); assay: JAK1 inhibition (Table 4); settings: read-out: JAK1 Ki
T1 construct: made in house; host or cells: SF9 insect cells (baculovirus)

JAK2 = biological target: T2, JAK2 (Homo sapiens, UniProt O60674); assay: JAK2 inhibition (Table 4); settings: read-out: JAK2 Ki
T2 construct: made in house; host or cells: SF9 insect cells (baculovirus)
T2 sequence (O60674 812-1132): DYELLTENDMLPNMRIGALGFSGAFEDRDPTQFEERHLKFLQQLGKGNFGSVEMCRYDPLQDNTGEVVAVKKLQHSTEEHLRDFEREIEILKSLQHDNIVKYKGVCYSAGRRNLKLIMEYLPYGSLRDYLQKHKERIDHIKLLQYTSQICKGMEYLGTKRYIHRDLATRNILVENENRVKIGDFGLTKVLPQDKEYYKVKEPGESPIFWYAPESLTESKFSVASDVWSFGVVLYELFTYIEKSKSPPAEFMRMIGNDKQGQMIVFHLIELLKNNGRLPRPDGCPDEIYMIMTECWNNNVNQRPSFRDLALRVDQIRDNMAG

JAK3 = biological target: T3, JAK3 (Homo sapiens, UniProt P52333); assay: JAK3 inhibition (Table 4); settings: read-out: JAK3 Ki
T3 construct: made in house; host or cells: SF9 insect cells (baculovirus)
T3 sequence (P52333 783-1124): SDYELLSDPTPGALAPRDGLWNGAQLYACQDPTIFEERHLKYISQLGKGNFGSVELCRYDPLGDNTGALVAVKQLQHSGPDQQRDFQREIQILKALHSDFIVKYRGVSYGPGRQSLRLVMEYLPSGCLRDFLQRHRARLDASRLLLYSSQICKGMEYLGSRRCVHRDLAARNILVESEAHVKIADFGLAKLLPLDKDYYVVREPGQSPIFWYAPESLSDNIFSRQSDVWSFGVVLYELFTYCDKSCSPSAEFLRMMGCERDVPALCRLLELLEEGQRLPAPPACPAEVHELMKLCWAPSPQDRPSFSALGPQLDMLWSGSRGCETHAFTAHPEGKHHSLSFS

TYK2 = biological target: T4, TYK2 (Homo sapiens, UniProt P29597); assay: TYK2 inhibition (Table 4)
T4 construct: made in house; host or cells: SF9 insect cells (baculovirus)
T4 sequence (P29597 873-1187): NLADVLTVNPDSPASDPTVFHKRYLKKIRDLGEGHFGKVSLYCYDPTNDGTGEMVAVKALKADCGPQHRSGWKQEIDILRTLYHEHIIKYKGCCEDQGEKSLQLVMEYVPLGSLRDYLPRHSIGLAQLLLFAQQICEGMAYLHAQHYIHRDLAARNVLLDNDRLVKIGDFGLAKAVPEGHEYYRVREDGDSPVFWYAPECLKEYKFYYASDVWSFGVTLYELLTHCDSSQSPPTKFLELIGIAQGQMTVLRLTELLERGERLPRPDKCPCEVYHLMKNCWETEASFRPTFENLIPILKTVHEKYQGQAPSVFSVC

T1 sequence (P23458 852-1154): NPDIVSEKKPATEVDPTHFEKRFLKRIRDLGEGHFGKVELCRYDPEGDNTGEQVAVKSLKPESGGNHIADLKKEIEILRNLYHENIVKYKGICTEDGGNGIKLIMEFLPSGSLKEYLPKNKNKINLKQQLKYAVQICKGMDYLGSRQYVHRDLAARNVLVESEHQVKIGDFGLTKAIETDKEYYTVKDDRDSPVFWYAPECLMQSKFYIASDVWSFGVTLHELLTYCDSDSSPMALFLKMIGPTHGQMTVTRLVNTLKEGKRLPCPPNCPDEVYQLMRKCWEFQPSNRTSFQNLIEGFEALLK

Ki (JAK1) [nM] | Ki (JAK2) [nM] | Ki (JAK3) [nM] | Ki (TYK2) [nM] | Structure (SMILES)
32.5 | 61.2 | 1020 | 235 | COC1CNCCC1n1nnc2cnc3[nH]ccc3c21 (racemic) [Example 536, 1-(3-Methoxy-piperidin-4-yl)-1,6-dihydro-1,2,3,5,6-pentaaza-as-indacene]
25.2 | 33.8 | 322 | 122 | COC1CNCCC1n1cnc2cnc3[nH]ccc3c21 (racemic) [Example 537, 1-(3-Methoxy-piperidin-4-yl)-1,6-dihydro-1,3,5,6-tetraaza-as-indacene]
0.86 | 0.89 | 4.01 | 8.66 | COC1CN(CCC#N)CCC1n1c(C)nc2cnc3[nH]ccc3c21 (racemic) [Example 538, 3-[3-Methoxy-4-(2-methyl-6H-1,3,5,6-tetraaza-as-indacen-1-yl)-piperidin-1-yl]-propionitrile]
12.7 | 194 | 97.4 | 352 | COCCN1CCC(n2c(C(C)O)nc3cnc4[nH]ccc4c32)CC1 (racemic) [Example 539, 1-{1-[1-(2-Methoxy-ethyl)-piperidin-4-yl]-1,6-dihydro-1,3,5,6-tetraaza-as-indacen-2-yl}-ethanol]
30.8 | 126 | 823 | 497 | Cc1nc2cnc3[nH]ccc3c2n1[C@H]1CC[C@H](N2CCC(O)C2)CC1 (mixture of isomers) [Example 597, Racemic trans 1-[4-(2-Methyl-6H-1,2,3,5,6-tetraaza-as-indacen-1-yl)-cyclohexyl]-pyrrolidin-3-ol]
138 | 446 | 942 | 1440 | COCCNC1CCC(n2nnc3cnc4[nH]ccc4c32)C1 (racemic) [Example 618, Racemic trans (2-methoxy-ethyl)-[3-(6H-1,2,3,5,6-pentaaza-as-indacen-1-yl)-cyclopentyl]-amine hydrochloride]
1.64 | 8.15 | 20.5 | 91.4 | O=C(NC1CCC(n2nnc3cnc4[nH]ccc4c32)C1)OCC(F)(F)F (racemic) [Example 620, Racemic trans [3-(6H-1,2,3,5,6-Pentaaza-as-indacen-1-yl)-cyclopentyl]-carbamic acid 2,2,2-trifluoro-ethyl ester]
8.78 | 23.2 | 148 | 124 | COC(=O)NC1CCC(n2nnc3cnc4[nH]ccc4c32)C1 (racemic) [Example 621, Racemic trans [3-(6H-1,2,3,5,6-Pentaaza-as-indacen-1-yl)-cyclopentyl]-carbamic acid methyl ester]
9 | 12.4 | 19.5 | 233 | CN(CC(F)(F)F)C(=O)NC1CCC(n2nnc3cnc4[nH]ccc4c32)C1 (racemic) [Example 622, Racemic trans 1-Methyl-3-[3-(6H-1,2,3,5,6-pentaaza-as-indacen-1-yl)-cyclopentyl]-1-(2,2,2-trifluoro-ethyl)-urea]
2.04 | 6.4 | 33.7 | 9.38 | Cc1nc2cnc3[nH]ccc3c2n1C1CCC(NCC(F)(F)F)C1 (racemic) [Example 626, Racemic trans [3-(2-Methyl-6H-1,2,3,5,6-tetraaza-as-indacen-1-yl)-cyclopentyl]-(2,2,2-trifluoro-ethyl)-amine]
1.36 | 5.91 | 14 | 12.7 | Cc1nc2cnc3[nH]ccc3c2n1C1CCC(NCCC#N)C1 (racemic) [Example 627, Racemic trans 3-[3-(2-methyl-6H-1,2,3,5,6-tetraaza-as-indacen-1-yl)-cyclopentylamino]-propionitrile]
43.1 | 375 | 798 | 974 | COCCNC1CCC(n2c(C)nc3cnc4[nH]ccc4c32)C1 (racemic) [Example 628, Racemic trans (2-methoxy-ethyl)-[3-(2-methyl-6H-1,2,3,5,6-tetraaza-as-indacen-1-yl)-cyclopentyl]-amine]
1.36 | 4.99 | 11 | 32 | N#CCC(=O)NC1CCC(n2cnc3cnc4[nH]ccc4c32)C1 (racemic) [Example 629, Racemic trans 2-cyano-N-[3-(6H-1,2,3,5,6-tetraaza-as-indacen-1-yl)-cyclopentyl]-acetamide]
2.59 | 6.62 | 18.4 | 25.8 | CS(=O)(=O)NC1CCC(n2cnc3cnc4[nH]ccc4c32)C1 (racemic) [Example 630, Racemic trans N-[3-(6H-1,2,3,5,6-tetraaza-as-indacen-1-yl)-cyclopentyl]-methanesulfonamide]
6.06 | 72.4 | 119 | 26.8 | C[C@@H](O)c1nc2cnc3[nH]ccc3c2n1C1CCCC(C#N)C1 (mixture of isomers) [Example 648, Racemic cis 3-[2-((R)-1-Hydroxy-ethyl)-6H-1,2,3,5,6-tetraaza-as-indacen-1-yl]-cyclohexanecarbonitrile]
28.1 | 67.5 | 20.6 | 207 | CC1(n2cnc3cnc4[nH]ccc4c32)CCCN(C(=O)CC#N)C1 (racemic) [Example 706, 3-[3-Methyl-3-(6H-1,2,3,5,6-tetraaza-as-indacen-1-yl)-piperidin-1-yl]-3-oxo-propionitrile]
74.5 | 123 | 112 | 391 | c1nc2c([nH]1)CCC(n1cnc3cnc4[nH]ccc4c31)C2 (racemic) [Example 707, 1-(4,5,6,7-Tetrahydro-3H-benzoimidazol-5-yl)-1,6-dihydro-1,2,3,5,6-tetraaza-as-indacene]
6.11 | 13.3 | 59.7 | 35 | FC(F)(F)CNC1CCC(n2cnc3cnc4[nH]ccc4c32)C1 (racemic) [Example 717, [3-(6H-1,3,5,6-tetraaza-as-indacen-1-yl)-cyclopentyl]-(2,2,2-trifluoro-ethyl)-amine]
10.3 | 20.8 | 143 | 83.1 | FC(F)(F)CNC1CCC(n2nnc3cnc4[nH]ccc4c32)C1 (racemic) [Example 718, [3-(6H-1,2,3,5,6-Pentaaza-as-indacen-1-yl)-cyclopentyl]-(2,2,2-trifluoro-ethyl)-amine]
1.09 | 4.04 | 14.2 | 13.4 | Cc1nc2cnc3[nH]ccc3c2n1C1CCC(NS(C)(=O)=O)C1 (racemic) [Example 721, N-[3-(2-methyl-6H-1,3,5,6-tetraaza-as-indacen-1-yl)-cyclopentyl]-methanesulfonamide]
176 | 785 | 754 | 2220 | COCCNC1CCC(n2cnc3cnc4[nH]ccc4c32)C1 (racemic) [Example 726, (2-Methoxy-ethyl)-[3-(6H-1,3,5,6-tetraaza-as-indacen-1-yl)-cyclopentyl]-amine]
1.52 | 6.24 | 2.26 | 22.4 | Cc1nc2cnc3[nH]ccc3c2n1C1CCC(NC(=O)CC#N)C1 (racemic) [Example 728, 2-Cyano-N-[3-(2-methyl-6H-1,3,5,6-tetraaza-as-indacen-1-yl)-cyclopentyl]-acetamide]
2 | 9.79 | 13.5 | 48.9 | O=C(CC(F)(F)F)NC1CCC(n2cnc3cnc4[nH]ccc4c32)C1 (racemic) [Example 729, 3,3,3-Trifluoro-N-[3-(6H-1,3,5,6-tetraaza-as-indacen-1-yl)-cyclopentyl]-propionamide]
1.49 | 7.24 | 1.87 | 21.1 | Cc1nc2cnc3[nH]ccc3c2n1C1CCC(NC(=O)CC(F)(F)F)C1 (racemic) [Example 730, 3,3,3-Trifluoro-N-[3-(2-methyl-6H-1,3,5,6-tetraaza-as-indacen-1-yl)-cyclopentyl]-propionamide]
2.85 | 8.59 | 16.2 | 64.7 | O=C(CCC(F)(F)F)NC1CCC(n2cnc3cnc4[nH]ccc4c32)C1 (racemic) [Example 732, 4,4,4-Trifluoro-N-[3-(6H-1,3,5,6-tetraaza-as-indacen-1-yl)-cyclopentyl]-butyramide]
1.28 | 6.42 | 0.79 | 57.2 | Cc1nc2cnc3[nH]ccc3c2n1C1CCC(NC(=O)N(C)CC(F)(F)F)C1 (racemic) [Example 736, 1-Methyl-3-[3-(2-methyl-6H-1,3,5,6-tetraaza-as-indacen-1-yl)-cyclopentyl]-1-(2,2,2-trifluoro-ethyl)-urea]
4.53 | 8.44 | 7.19 | 107 | CN(CC(F)(F)F)C(=O)NC1CCC(n2cnc3cnc4[nH]ccc4c32)C1 (racemic) [Example 737, 1-Methyl-3-[3-(6H-1,3,5,6-tetraaza-as-indacen-1-yl)-cyclopentyl]-1-(2,2,2-trifluoro-ethyl)-urea]
11.6 | 49.1 | 80.9 | 351 | COCCN(C)C(=O)NC1CCC(n2c(C)nc3cnc4[nH]ccc4c32)C1 (racemic) [Example 738, 1-(2-Methoxy-ethyl)-1-methyl-3-[3-(2-methyl-6H-1,3,5,6-tetraaza-as-indacen-1-yl)-cyclopentyl]-urea]
